Results taken from publication PMC12071706, “Impact of SARS-CoV-2 RBM Mutations N501Y and E484K on ACE2 Binding: A Combined Computational and Experimental Study” (International Journal of Molecular Sciences, 2025).

Target: T1, human ACE2 protein (hACE2) (Homo sapiens, UniProt Q9BYF1)
T1 construct: His; purchased AbClonal (Woburn, MA, USA) RP01277; host or cells: HEK293
Assay: biochemical
Format: binding

T1 sequence (Q9BYF1 18-740): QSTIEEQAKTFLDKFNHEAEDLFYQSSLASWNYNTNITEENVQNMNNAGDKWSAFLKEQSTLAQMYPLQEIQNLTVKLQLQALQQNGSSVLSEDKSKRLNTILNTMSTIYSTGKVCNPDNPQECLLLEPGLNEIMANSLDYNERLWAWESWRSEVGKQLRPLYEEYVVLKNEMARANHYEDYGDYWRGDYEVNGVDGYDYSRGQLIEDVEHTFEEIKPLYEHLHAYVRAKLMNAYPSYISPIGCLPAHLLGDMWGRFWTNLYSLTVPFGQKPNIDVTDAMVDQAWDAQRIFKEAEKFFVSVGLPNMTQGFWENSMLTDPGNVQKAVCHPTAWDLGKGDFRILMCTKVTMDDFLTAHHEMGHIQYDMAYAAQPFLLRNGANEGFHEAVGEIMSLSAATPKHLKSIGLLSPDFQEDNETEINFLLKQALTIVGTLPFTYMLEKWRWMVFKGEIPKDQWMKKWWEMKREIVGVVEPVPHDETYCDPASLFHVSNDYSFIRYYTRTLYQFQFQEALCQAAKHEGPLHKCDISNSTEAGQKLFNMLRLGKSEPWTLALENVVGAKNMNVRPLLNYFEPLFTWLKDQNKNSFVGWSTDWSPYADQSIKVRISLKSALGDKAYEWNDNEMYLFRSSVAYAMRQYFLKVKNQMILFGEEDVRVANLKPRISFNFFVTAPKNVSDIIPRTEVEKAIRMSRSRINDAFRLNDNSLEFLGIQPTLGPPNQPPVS

CC(=O)NCC(=O)N[C@H](C(=O)N[C@@H](CCCCN)C(=O)NCC(=O)N[C@@H](Cc1ccccc1)C(=O)N[C@@H](CC(N)=O)C(=O)N[C@@H](CS)C(=O)N[C@@H](Cc1ccc(O)cc1)C(=O)N[C@@H](Cc1ccccc1)C(=O)N1CCC[C@H]1C(=O)N[C@@H](CC(C)C)C(=O)N[C@@H](CCC(N)=O)C(=O)N[C@@H](CO)C(=O)N[C@@H](Cc1ccc(O)cc1)C(=O)NCC(=O)N[C@@H](Cc1ccccc1)C(=O)N[C@@H](CCC(N)=O)C(=O)N1CCC[C@H]1C(=O)N[C@H](C(=O)N[C@@H](CC(N)=O)C(=O)NCC(N)=O)[C@@H](C)O)C(C)C [Zeta]
Kd: 810 ± 60 nM | N (stoichiometry) (pH 7.4): 0.76 ± 0.03 | fold increase in binding affinity (pH 7.4): 5.8 fold | thermodynamic signature (enthalpic vs entropic contribution) (pH 7.4): the enthalpic and entropic contributions are of comparable magnitude within the experimental error | ΔGITC (pH 7.4): -8.31 ± 0.07 kcal/mol | ΔHITC (pH 7.4): -4.26 ± 0.24 kcal/mol | −TΔSITC (pH 7.4): -4.06 ± 0.25 kcal/mol

CC(=O)NCC(=O)N[C@H](C(=O)N[C@@H](CCCCN)C(=O)NCC(=O)N[C@@H](Cc1ccccc1)C(=O)N[C@@H](CC(N)=O)C(=O)N[C@@H](CS)C(=O)N[C@@H](Cc1ccc(O)cc1)C(=O)N[C@@H](Cc1ccccc1)C(=O)N1CCC[C@H]1C(=O)N[C@@H](CC(C)C)C(=O)N[C@@H](CCC(N)=O)C(=O)N[C@@H](CO)C(=O)N[C@@H](Cc1ccc(O)cc1)C(=O)NCC(=O)N[C@@H](Cc1ccccc1)C(=O)N[C@@H](CCC(N)=O)C(=O)N1CCC[C@H]1C(=O)N[C@H](C(=O)N[C@@H](Cc1ccc(O)cc1)C(=O)NCC(N)=O)[C@@H](C)O)C(C)C [Beta/Gamma]
Kd: 310 ± 80 nM
